Assay results: PubChem BioAssay (NCI)
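Following 48 hours of exposure in 96-well plates, responses at five concentrations were used to interpolate endpoints linearly. The concentration for 50% growth inhibition is given as GI50. TGI denotes the concentration required for complete inhibition of growth.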

Experiments:
Assay in all cases: NCI anticancer screen, dose series, 48 h
A549 NSCLC = test system: A549 NSCLC
DMS 114 small cell lung = test system: DMS 114 small cell lung
HOP-62 NSCLC = test system: HOP-62 NSCLC
M19-MEL melanoma = test system: M19-MEL melanoma
OVCAR-4 ovarian = test system: OVCAR-4 ovarian
SK-MEL-2 melanoma = test system: SK-MEL-2 melanoma
SN12C renal = test system: SN12C renal
DMS 273 small cell lung = test system: DMS 273 small cell lung
MCF7 breast = test system: MCF7 breast
MDA-MB-435 = test system: MDA-MB-435
NCI/ADR-RES ovarian = test system: NCI/ADR-RES ovarian

SMILES | TGI (A549 NSCLC) | TGI (DMS 114 small cell lung) | TGI (HOP-62 NSCLC) | TGI (M19-MEL melanoma) | TGI (OVCAR-4 ovarian) | TGI (SK-MEL-2 melanoma) | TGI (SN12C renal) | TGI (DMS 273 small cell lung) | GI50 (A549 NSCLC) | GI50 (HOP-62 NSCLC) | GI50 (MCF7 breast) | TGI (MCF7 breast) | GI50 (MDA-MB-435) | TGI (MDA-MB-435) | GI50 (NCI/ADR-RES ovarian) | TGI (NCI/ADR-RES ovarian) | GI50 (OVCAR-4 ovarian) | GI50 (SK-MEL-2 melanoma) | GI50 (SN12C renal) | GI50 (DMS 114 small cell lung)
CNS(=O)(=O)NNS(=O)(=O)c1ccc(Cl)cc1 | > 100 µM | > 100 µM | > 100 µM | > 100 µM | > 100 µM | > 100 µM | > 100 µM |  |  |  |  |  |  |  |  |  |  |  |  | 
COc1ccc(C=O)c(NC(=O)C(C)C)c1 | > 100 µM | 88.7 µM |  | 49.5 µM | > 100 µM | > 100 µM | 57.6 µM | > 100 µM |  |  |  |  |  |  |  |  |  |  |  | 
CCN(Cc1ccc(Cl)s1)c1ccc(CO)c(Cl)c1 | 18.7 µM |  | 18.4 µM |  | 0.776 µM | 13.7 µM | 22.3 µM |  | 1.08 µM | 0.746 µM | 0.119 µM | 12.3 µM | 20.3 µM | 59 µM | 10.4 µM | 47.1 µM | 0.134 µM | 2.02 µM | 7.08 µM | 
N/N=C1\CC(=O)NC(=O)N1 | > 100 µM |  | > 100 µM |  | > 100 µM | > 100 µM | > 100 µM |  |  |  |  | > 100 µM |  | > 100 µM |  | > 100 µM |  |  |  | 
O=C(O)COc1c(Cl)cc(Cl)c2cccnc12 | > 100 µM |  | > 100 µM |  | > 100 µM | > 100 µM | > 100 µM |  |  |  |  | > 100 µM |  | > 100 µM |  | > 100 µM |  |  |  | 
CCCCn1c(=O)c2c(nc3n2CCCN3CCc2ccc(OCC(=O)NCCN(CC)CC)cc2)n(CCCC)c1=O | 15.4 µM |  | 14.7 µM |  | 9.76 µM | 15.3 µM | 15.3 µM |  | 7.12 µM | 5.75 µM | 1.95 µM | 8.97 µM | 5.08 µM | 11.1 µM | 5.42 µM | 27.9 µM | 2.61 µM | 6.7 µM | 5.76 µM | 
CCCCCCN(N)C(=O)CC#N | > 100 µM | > 100 µM | > 100 µM | > 100 µM | > 100 µM |  | > 100 µM | > 100 µM |  |  |  |  |  |  |  |  |  |  |  | 
Cc1ccc(NC(=O)c2ccccc2C(=O)O)cc1C | > 100 µM |  | > 100 µM |  | > 100 µM | > 100 µM | > 100 µM |  |  |  |  | > 100 µM |  | > 100 µM |  | > 100 µM |  |  |  | 
N#Cc1ccc(N=Cc2c([O-])ccc3ccccc23)cc1.[C-]#[O+].[C-]#[O+].[Ir] | 38.1 µM | 3.66 µM | 42 µM |  | 17.7 µM |  | 27.5 µM |  | 20.8 µM | 20.6 µM |  |  |  |  |  |  | 3.85 µM |  | 13.2 µM | 1.69 µM
C#CCOc1cccc(Nc2ncnc3c(NC(=O)CCl)cccc23)c1 | 49.9 µM |  | 86.3 µM |  | > 100 µM | 60.8 µM | > 100 µM |  | 22.1 µM | 25.8 µM | 14.5 µM | 48.3 µM | 26.2 µM | > 100 µM | 32 µM | > 100 µM | 37.1 µM | 21.1 µM | 29.5 µM | 
Cc1cccc(NC(=O)c2sc3nc4c(cc3c2N)CN(Cc2ccccc2)CC4)c1C | > 50 µM |  | > 50 µM |  | 39 µM | 25.8 µM | > 50 µM |  | 0.381 µM | 0.261 µM | 0.151 µM | > 50 µM | 0.065 µM | 0.181 µM | 0.133 µM | > 50 µM | 0.971 µM | 0.328 µM | 0.313 µM | 
Nc1ccccc1SCc1csc(-c2ccc(Cl)cc2)n1 | > 100 µM |  | > 90.6 µM |  | > 77.1 µM | 35.2 µM | 34.2 µM |  |  |  |  | 71.8 µM |  | 37.8 µM |  | 66.4 µM |  |  |  | 
CCn1c2ccccc2c2cc(/C=C(/C#N)C(N)=O)ccc21 | > 100 µM |  | 41.8 µM |  | > 100 µM | > 60.4 µM | > 100 µM |  | 20.3 µM | 4.81 µM | 0.857 µM | > 47.3 µM | 2.53 µM | 18.4 µM | 11.2 µM | 88.1 µM | 6.54 µM | 11.4 µM | 43.6 µM | 
COc1ccc(C(=O)N2c3ccccc3Sc3ccccc32)c(OC)c1 | > 100 µM |  | > 100 µM |  | > 100 µM | > 100 µM | > 100 µM |  | 0.785 µM | 0.822 µM | 0.45 µM | > 100 µM | 0.212 µM | 0.953 µM | 0.4 µM | 42.1 µM | 3.17 µM | 0.585 µM | 0.586 µM | 
O=[N+]([O-])c1cc(S(=O)(=O)Oc2ccccc2)ccc1Cl | 14.5 µM |  | 19.2 µM |  | 3.2 µM | 26.1 µM | 13.6 µM |  | 3.43 µM | 6.06 µM | 2.06 µM | 4.31 µM | 1.64 µM | 3.09 µM | 8.27 µM | 45.3 µM | 1.75 µM | 10.7 µM | 3.56 µM | 
O=C1NC(=O)C(c2cccc(Cl)c2)=C1Nc1ccc(O)c(Cl)c1 | > 25 µM |  | 24.3 µM |  | > 25 µM | 22.5 µM | > 25 µM |  | 9.88 µM | 9.57 µM | 10.4 µM | > 25 µM | 3.28 µM | > 25 µM | 10.4 µM | > 25 µM | 8.98 µM | 7.91 µM | 9.42 µM | 
CN(CC(N)=O)C(=O)N(CCCl)N=O | > 100 µM |  | > 100 µM |  | > 100 µM | > 100 µM | > 100 µM |  |  |  |  | > 100 µM |  | > 100 µM |  | > 100 µM |  |  |  | 
O=C(Nc1cccc(Nc2ncc(Br)c(NCCc3cnc[nH]3)n2)c1)N1CCCC1 | > 67.1 µM |  | 14.7 µM |  | 31.1 µM | 19.4 µM | 33.6 µM |  | 7.56 µM | 2.35 µM | 1.19 µM | 17.7 µM | 2.62 µM | 18.5 µM | > 66.7 µM | > 100 µM | 3.71 µM | 5.31 µM | 2.88 µM | 
